Reference: patent publication US6979665B2, “Agent for stimulation of the natural defences of plants and methods for using it” (Laboratoires Goemar S.A., priority 2002, dated 2005)
“Also recorded” adds a separate entry of the source.

Tests used:
[1] = test system: signalisation pathways of salicic acid and of ethylene; assay: Complementary experiences on signalisation pathways; type: in vivo
[2] = test system: OMT activity (orthodiphenol-O-methyltransferases); assay: OMT activity in infiltrated tobacco leaves; type: in vivo, Nicotiana tabacum; conditions: for stimulation of the OMT activity: 200 mg/l; for OMT activity relative to that obtained with H11-C2: 500 mg/l
Description: Measurement was also made of the OMT activity induced by the compositions based on the fractions H11-C1 and H11-S.
For the measurement of that activity, procedure was as disclosed by Costet L., Dorey S., Fritig B. and Kauffmann S in the publication here above identified and published under the title: • “A pharmacological approach to test the diffusible signal activity of reactive oxygen intermediates in […] tobacco leaves”, in Plant Cell and Physiology (2002) 43; 91-98.
The latter show the stimulation of the OMT activity, expressed in pkat/g FP (i.e. in picokatal per gram of fresh product FP, in other words of fresh vegetable material), by infiltration with water as control (reference C), then with the compositions based on H11-C1 and H11-S, the plants treated being again the varieties NN and Bel3.
The OMT activity has also been measured after infiltration of the varieties NN and Bel3 with the same compositions.
In another line of tests, the varieties NN and Bel3 have been treated with the same inducing compositions presenting respectively the concentrations of 0.5 and then of 5, of 50, of 200 and of 500 mg/l in H11-S and H11-C and the OMT activity in the case of the varieties NN and Bel3 has been analysed.
FIGS. 8 and 9 show the values of stimulation of the OMT activity (expressed in pkat/g FP) respectively in the case of the varieties NN and Bel3.

[3] = test system: agronomically useful plants; assay: Stimulation of natural defence reactions of plants by liquid compositions (general statements); type: in vivo; conditions: in practice
[4] = test system: scopoletin; assay: Accumulation of total scopoletin in infiltrated tissues; type: in vivo, Nicotiana tabacum; conditions: variety Bel3, tissues sampled 3 days after infiltration (FIG. 6)
Description: (§1) The stimulation, after infiltration with the here above defined compositions H11-C and H11-S of the accumulation of salicylic acid and of scopoletin in the varieties NN and Bel3 was then examined.
(§2) The results of these experiences appear on FIGS. 5 and 6, which respectively show the accumulation—expressed in μg respectively of salicylic acid and of scopoletin per gram of infiltrated tissues—of the total salicylic acid (free and conjugated forms) and of the total scopoletin (free and conjugated forms) determined on tissues on the varieties NN and Bel3 infiltrated as indicated here above on the one hand with water (C) as a control and on the other hand with compositions based on the fractions H11-C1 and H11-S containing respectively 200 mg/l of these fractions, the infiltrated tissues being sampled 3 days after the infiltration treatment.

[5] = test system: cellular suspension of Nicotiana tabacum cv. Bright Yellow; assay: Alkalinisation test of the extracellular medium on cellular suspension; type: cell-based; conditions: after 10 minutes; 160 μl of 10 g/l composition added to 8 ml suspension, final concentration about 200 mg/l
Procedure: The cellular suspensions here above mentioned are suspensions obtained starting from the vegetal tissue of Nicotiana tabacum cv. Bright Yellow.
One of these experiences is consisting of the so-called alkalinisation test of the extracellular medium and the other of the so-called test of the refractory state.
In the case of the first test, the latter is carried out on a cellular suspension obtained starting from vegetable tissues of the variety Bright Yellow. To three 8 ml samples of that cellular suspension were added respectively 160 μl of three aqueous compositions respectively containing 10 g/l of the fractions H11-C1, I25 (oligofucanes) and H11-S, the final concentration in each of the oligosaccharides being equal to […].

[6] = test system: tobacco plants of the varieties NN and Bel3; assay: Symptoms of leaf tissues after infiltration into the mesophyl (depigmentation/chlorosis, fluorescence under UV light); type: in vivo, Nicotiana tabacum
Procedure: The treatment has been applied on the one hand to the whole plants and on the other hand to cellular suspensions, the varieties of the plants used being: • the variety Nicotiana tabacum cv. Samsun NN designated by NN • the variety Nicotiana tabacum cv. Bel3 designated by Bel3
First, the plants of the varieties NN and Bel 3 as such were treated using aqueous compositions comprising respectively the fractions H11-C1 and H11-S at the concentration of 200 mg/l, which is, as indicated hereabove, the optimum dosis for the elicitor activity of unsulfated glucans.
The treatment consists in the infiltration of the above said aqueous compositions based on the fractions H11-C1 and H11-S into the mesophyl of the leaves of the treated plants.
The infiltration is carried out by piercing tobacco leaves using a needle and by applying then perpendicularly with respect to the plane of the leave a syringe containing the solution to be injected. Immediately after the injection, the infiltration zone, visible by illumination of the leave from its lower face, is delimitated using a felt type pen. The infiltrated zone is designated by ZI.
(§3) In another line of tests or experiences, the varieties NN and Bel3 have been treated with inducing compositions presenting respectively the concentrations of 0.5 and then of 5, of 20, of 50, of 200 and of 1,000 mg/l in H11-S and H11-C2 and the expression of the PR1 and PR2 acidic proteins in the case of the said varieties NN and Bel3 have been analysed.

[7] = test system: salicylic acid; assay: Accumulation of total salicylic acid in infiltrated tissues; type: in vivo, Nicotiana tabacum; conditions: variety Bel3, tissues sampled 3 days after infiltration (FIG. 5)
Description: as §1, §2

[8] = test system: PR proteins (families PR1, PR2, PR3 and PR5, acidic and alkaline isoforms); assay: Expression of PR proteins in infiltrated tobacco leaves by immunodetection; type: in vivo, Nicotiana tabacum
Procedure: Concerning the PR proteins, the expression of the acidic and of the alkaline isoforms of 4 families of these proteins, i.e. the families PR1, PR2, PR3 and PR5 has been analysed in the case of tobacco plants of the varieties NN and Bel3 infiltrated with compositions based on the fractions H11-C1 and H11-S at a concentration of 200 mg/l.
The analysis of these proteins has been carried out by immunodetection as disclosed in the publication in the name of Costet L., Dorey S., Fritig B. and Kauffmann S., published under the title: • “A pharmacological approach to test the diffusible signal activity of reactive oxygen intermediates in elicitor-treated tobacco leaves”, in Plant Cell and Physiology (2002) 43; 91-98.
The intensity of the induction appears on the tracks 1 to 8 by way of spots more or less pronounced.
The samples of infiltrated tissues on which the treatments illustrated by track 9 of FIG. 3 were made, were carried out 3 days after the infiltration treatment.
as §3
That expression of the acidic PR1 and PR2 proteins is materialised by the intensity of the spots, which appear on the tracks 10, 11, 12, 13, and which are the result of the determination by immunodetection.

laminarin sulfate [H11-S]
induction of signalisation pathways [1]: induce the signalisation pathways of salicic acid and of ethylene | stimulation of the OMT activity ([2]; varieties NN and Bel3, compared among C, H11-C1, H11-C2, H11-C3, H11-S, H16 (FIG. 4)): clearly better | stimulation of the OMT activity ([2]; variety Bel3, H11-S versus H11-C1 (FIG. 2)): clearly more intense | stimulation of the OMT activity ([2]; variety NN, H11-S versus H11-C1 (FIG. 2)): similar | increase of OMT activity as a function of the concentration ([2]; 0.5, 5, 50, 200 and 500 mg/l, varieties NN and Bel3 (FIGS. 8 and 9)): much faster | OMT activity relative to that obtained with H11-C2 ([2]; variety Bel3): about ten | OMT activity relative to that obtained with H11-C2 ([2]; variety NN): about four | factor by which the concentration can be lower than that of H11-C1, H11-C2 and H11-C3 for a comparable OMT result ([2]; conclusion from FIG. 4): eight | dosis at which the maximum response of OMT activity is reached ([2]; varieties NN and Bel3): 500 mg/L | factor by which the concentration can be lower for OMT stimulation equal to H11-C1 at 200 mg/l ([2]; variety Bel3, forecast from FIG. 2): 8 to 9 times | concentration above which no better result is provided [3]: higher than 500 mg/l | ratio of the concentrations (H11-C1 at 200 mg/l versus H11-S) giving the same accumulation of scopoletin [4]: ≤ 30 | alkalinisation of the medium [5]: 0.3 pH units | fluorescence under U.V. light at the level of infiltrated tissues ([6]; 200 mg/l, infiltrated tissues): a blue fluorescence under U.V. light is observed | symptoms of chlorosis as a function of concentration ([6]; 0.5, 5, 20, 50, 200 and 1,000 mg/l, varieties NN and Bel3): the more the symptoms of chlorosis are severe | symptoms of the infiltrated tissues ([6]; aqueous composition 200 mg/l infiltrated into leaf mesophyl, varieties NN and Bel3): present a depigmentation | dose at which first symptoms of fluorescence under UV light are obtained ([6]; concentration series 0.5 to 1,000 mg/l): 50 mg/L | ratio of the concentrations (H11-C1 at 200 mg/l versus H11-S) giving the same accumulation of salicylic acid [7]: ≤ 30 | expression of acidic and alkaline isoforms of PR1, PR2, PR3 and PR5 proteins ([8]; 200 mg/l, varieties NN and Bel3, H11-S compared with H11-C1 (FIG. 1)): more important; also recorded: stronger | expression of the acidic PR1 protein ([8]; 200 mg/l, varieties NN and Bel3, tissues sampled 3 days after infiltration (FIG. 3)): highest expression | concentration from which acidic PR1 and PR2 proteins are detected ([8]; immunodetection, concentration series 0.5 to 1,000 mg/l, varieties NN and Bel3 (FIG. 7)): 5 to 20 mg/L | dosis at which the maximum response of expression of the PR proteins is reached ([8]; varieties NN and Bel3): 500 mg/L
